For series [1], the system named is Airway basal cells (ABC) from IPF patients. In words: Organoid formation assay. The format is cell-based, human. To be noted: for organoid formation of airway basal cells (FIGS. 4, 5 and 6): saracatinib 8, 25, 75, 210 or 600 nM, pirfenidone 1 mM, nintedanib 1 μM. As to the method:
Airway Basal Cells (ABCs) either derived from IPF patients or Healthy Volunteers (HV) were cultured in Matrigel® (Corning in a transwell system with or without lung fibroblasts either derived from patients with IPF or normal lung for up-to 35 days in the incubator (5% CO2, 37° C.)).

For series [2] the following is noted: IPF patients, cited from earlier work.
For series [3] the following is noted: cited from earlier work.
Series [4] has as its system TGFβ-stimulated NHLF (normal human lung fibroblasts). The series can be described thus: cells. It counts as cell-based. To be noted: for IC50: Homo sapiens, Fibroblast; for cell viability / cell death / inhibition of αSMA (FIG. 2): TGF-beta1-stimulated human lung fibroblasts. As to the method: Normal human lung fibroblasts from a healthy donor (passage 5) were seeded in 96-well culture plates with 50,000 cells per cm^2 in DMEM culture medium with 10% FBS and 1% penicillin-streptomycin. […]. The cells were incubated for one hour before 0.123 ng/ml TGF-beta1 was added on top of the compound/vehicle treatment and the cells were incubated for 24 hours.
After 24 hours the medium was collected and analysed for IL-6 and the cells were either lysed for RNA isolation, DNA-synthesis and TaqMan quantitative PCR or fixated and stained for alpha-smooth muscle actin (αSMA) and with Hoechst nuclear staining. The percentage of cells staining positive for αSMA and thereby displaying the myofibroblast phenotype was determined using high content image analysis. The Ct-values from the quantitative PCR were normalised against the geomean Ct values of two reference-genes and presented as fold-expression over those reference genes (2^-delta Ct).

Series [5] is described as follows: Pharmacokinetics (PK) of saracatinib in the bleomycin model. The format is in vivo. To be noted: mouse, mice; for Cmax: Day 21, dosed 1 hour prior to terminal blood draw; for concentration at 21 day: Day 21, not dosed before blood draw, read-out: Cmin +/− SD.
The subject of series [6] is human primary cell-based systems (BioMAP). The series can be described thus: DiscoverX BioMAP Combo ELECT panel, relative protein expression. The conditions noted are these: saracatinib 3.3 μM, relative to vehicle control. From the text: BioMAP panels consist of human primary cell-based systems designed to model different aspects of the human body in an in vitro format. The 12 systems available in the Diversity PLUS panel allow test agent characterization in an unbiased way across a broad set of systems modelling various human disease states. BioMAP systems are constructed with one or more primary cell types from healthy human donors, with stimuli (such as cytokines or growth factors) added to capture relevant signalling networks that naturally occur in human tissue or pathological conditions. Systems recapitulate aspects of the systemic immune response including monocyte-driven Th1 inflammation (LPS system) or T cell stimulation (SAg system), chronic Th1 inflammation driven by macrophage activation (IMphg system) and the T cell-dependent activation of B cells that occurs in germinal centers (BT system). The BE3C system (Th1) and the BF4T system (Th2) represent airway inflammation of the lung, while the MyoF system models myofibroblast-lung tissue remodelling.
Each test agent generates a signature BioMAP profile that is created from the changes in protein biomarker readouts within individual system environments. Biomarker readouts (7-17 per system) are selected for therapeutic and biological relevance, are predictive for disease outcomes or specific drug effects and are validated using agents with known mechanism of action (MoA). Each readout is measured quantitatively by immune-based methods that detect protein (e.g., ELISA) or functional assays that measure proliferation and viability. BioMAP readouts are diverse and include cell surface receptors, cytokines, chemokines, matrix molecules and enzymes.
In the Combo ELECT panel, a 4×4 combination array is created to test all mixtures of two serially diluted single test agents/drugs.

The subject of series [7] is bleomycin (Bleo) induced lung injury and fibrosis. The series can be described thus: Bleomycin model, lung hydroxyproline levels. The format is in vivo, mice. To be noted: saracatinib 1, 3 or 10 mg/kg BID vs pirfenidone 200 mg/kg BID and nintedanib 30 mg/kg BID, from day 7, day 21. How it is done:
Bleomycin Sulfate was obtained from Sigma-Aldrich. The IU conversion to enzyme units (U) is approximately 1.5-2 U/mg. For delivery of 4 U/kg in 50 μL, a solution of […] was prepared in 0.9% NaCl. Bleomycin or vehicle was dosed on Day 0 intranasally. […] Body weights and clinical observations were recorded on days 7, 14, and 21. On day 21, mice were euthanized by cervical dislocation. One side of lung tissue was dissected and analyzed for hydroxyproline levels as an indicator of local collagen deposition, and the other side lung was fixed in Formalin for histopathology (Quantitative staining with sirius red).

For another series, the target named is Lyn (Homo sapiens, UniProt P07948). The conditions noted are these: cited from earlier work.
Series [8] can be described thus: Saracatinib AD Phase IIa (52 weeks), safety and tolerability. The format is in vivo, human. The conditions noted are these: Alzheimer's Disease patients.
For series [9] the following is noted: IPF patients; cited from earlier work.
[10] abbreviates: 100 mg or 125 mg per day, 52 weeks, n = 79.
Where [11] appears, read: 24 h, read-out: Mean IC50 ACTA2 mRNA.
Where [12] appears, read: 24 h, read-out: Mean IC50 COL1A1 mRNA.
Setting [13] is: 24 h, read-out: Mean IC50 COL3A1 mRNA.
Where [14] appears, read: 24 h, read-out: Mean IC50 FN1 mRNA.
Setting [15] is: 24 h, read-out: Mean IC50 IL-6 protein.

The structures appear in SMILES notation. Like-named read-outs stand apart in the source and are kept apart here. Where only a bound is given, the exact number is not on record here.

Sequence of Lyn (P07948 whole entry): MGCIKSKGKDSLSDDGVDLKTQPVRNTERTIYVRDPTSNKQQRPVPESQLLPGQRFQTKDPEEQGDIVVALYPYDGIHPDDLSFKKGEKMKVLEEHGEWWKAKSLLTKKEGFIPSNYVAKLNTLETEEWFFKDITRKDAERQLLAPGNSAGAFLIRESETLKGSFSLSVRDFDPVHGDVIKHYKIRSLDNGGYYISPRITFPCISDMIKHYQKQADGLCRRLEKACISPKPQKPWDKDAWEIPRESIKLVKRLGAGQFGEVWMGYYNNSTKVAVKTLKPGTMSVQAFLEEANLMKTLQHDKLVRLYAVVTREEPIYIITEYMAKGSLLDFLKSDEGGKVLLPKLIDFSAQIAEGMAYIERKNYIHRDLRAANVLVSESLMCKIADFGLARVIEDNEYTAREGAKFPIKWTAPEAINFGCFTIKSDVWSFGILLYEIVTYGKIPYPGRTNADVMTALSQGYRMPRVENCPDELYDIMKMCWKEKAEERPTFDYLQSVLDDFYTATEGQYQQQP

Turning to `Cc1ccc(=O)n(-c2ccccc2)c1` [Pirfenidone], the “organoid formation of airway basal cells (FIGS. 4, 5 and 6)” value (“organoid formation of airway basal cells” below) in series [1] was “little to no effect”. For the same molecule, in series [2] (52 weeks, n = 623), the Anorexia is given as 13%, the Diarrhea is reported as 24.6%, the Nausea was 35.5% and the Vomiting is 12.7%. In [2] (52 weeks, n = 623), the “Weight Decrease” value was 10%. Also, in [2] (Pirfenidone Medical Review, pirfenidone n = 345), the “Decreased Appetite” value is reported as 9%^3. Further, in [2], the “Treatment Discontinuations, clinical studies IPF” value was 14.6% (9.6%). In series [3], the “Treatment Discontinuations, Real-World data” value is 20.9%. For the same molecule, in [4] (TGFβ-stimulated NHLF, healthy donor 197 (n = 3), 24 hours, read-out: Mean IC50 ACTA2 mRNA), the IC50 is above 10000 nM. Moreover, in [4] (TGFβ-stimulated NHLF, healthy donor 197 (n = 3), 24 hours, read-out: Mean IC50 COL1A1 mRNA), the IC50 was above 10000 nM. In addition, the IC50 in [4] (TGFβ-stimulated NHLF, healthy donor 197 (n = 3), 24 hours, read-out: Mean IC50 COL3A1 mRNA) was above 10000 nM. In series [4] (TGFβ-stimulated NHLF, healthy donor 197 (n = 3), 24 hours, read-out: Mean IC50 FN1 mRNA), the IC50 is above 10000 nM. Further, the IC50 in [4] (TGFβ-stimulated NHLF, healthy donor 197 (n = 3), 24 hours, read-out: Mean IC50 IL-6 protein) was above 10000 nM. The 50% inhibitory concentration (IC50) in series [4] (TGFβ-stimulated NHLF, healthy donor 197 (n = 3), 24 hours, read-out: Mean IC50 αSMA) was above 10000 nM. In addition, in series [4], the “cell viability / cell death” value was “some evidence of cell death” and the “inhibition of αSMA (FIG. 2)” value is “inhibited αSMA, but at supra-therapeutic concentrations”.

With `CN1CCN(CCOc2cc(OC3CCOCC3)c3c(Nc4c(Cl)ccc5c4OCO5)ncnc3c2)CC1` [Saracatinib, N-(5-chlorobenzo[d][1,3]dioxol-4-yl)-7-(2-(4-methylpiperazin-1-yl)ethoxy)-5-((tetrahydro-2H-pyran-4-yl)oxy)quinazolin-4-amine], in [5] (1 mg/kg BID oral gavage), the Cmax was determined as 71.5 nM and the concentration at 21 day worked out at 2.52 nM. Further, in [5] (3 mg/kg BID oral gavage), the Cmax is 139 nM and the concentration at 21 day came to 8.41 nM. In series [5] (10 mg/kg BID oral gavage), the Cmax turned out to be 390 nM and the concentration at 21 day came to 31.8 nM. For the same molecule, in series [6], the “expression of MMP-9 (FIG. 7)” value is “decreased expression”, the “expression of N-cadherin (FIG. 7)” value is “decreased expression”, the “expression of TIMP-1 (FIG. 7)” value is “decreased expression” and the “expression of VCAM-1 (FIG. 7)” value is recorded as “increased expression”. For the same molecule, in series [6], the “expression of a-SMA (FIG. 7)” value is recorded as “increased expression”, the “expression of sIL-6 (FIG. 7)” value is given as “decreased expression”, the “expression of sIL-8 (FIG. 7)” value is reported as “decreased expression” and the “expression of sVEGF (FIG. 7)” value is listed as “decreased expression”. Besides, the cytotoxicity entry in series [1] (ABC organoids, saracatinib 8 to 600 nM) is recorded as “non-cytotoxic”. In addition, the “organoid formation of airway basal cells” value in series [1] was “differentiated and uniquely efficacious”. In addition, in series [7], the “hydroxyproline levels after bleomycin induced lung injury and fibrosis (FIG. 1)” value was “compares favourably to pirfenidone (at much lower doses) and is potentially superior to nintedanib at clinically relevant doses”. For the same molecule, the concentration for half-maximal inhibition (IC50) at Lyn was 5 nM. The “Treatment Discontinuations, clinical studies AD” value in series [8] is recorded as 8.2% (1.2%). Also, in series [8] (setting [10]), the Anorexia is recorded as 3%, the “Decreased Appetite” value is reported as 9%, the Diarrhea was 27.8% and the Nausea amounted to 12.7%. In series [8] (setting [10]), the Vomiting was found to be 5.1% and the “Weight Decrease” value stood at 10%. Besides, the IC50 in series [4] (setting [11]) worked out at 186 nM. In addition, in [4] (setting [12]), the half-inhibitory concentration (IC50) turned out to be 1010 nM. Besides, the IC50 in series [4] (setting [13]) was 7990 nM. The IC50 in [4] (setting [14]) stood at 526 nM. Also, the IC50 in [4] (setting [15]) stood at 128 nM. In addition, the half-maximal inhibitory concentration (IC50) in series [4] (24 h, read-out: Mean IC50 αSMA) is 185 nM. Also, in [4], the “cell viability / cell death” value was “without impacting cell viability” and the “inhibition of αSMA (FIG. 2)” value is given as “dose-dependent inhibition of αSMA”.

With `COC(=O)c1ccc2c(c1)NC(=O)/C2=C(\Nc1ccc(N(C)C(=O)CN2CCN(C)CC2)cc1)c1ccccc1` [Nintedanib], the “organoid formation of airway basal cells” value in [1] is “little to no effect”. For the same molecule, in series [3], the “Treatment Discontinuations, Real-World data” value is given as 26.3%. Besides, the “Treatment Discontinuations, clinical studies IPF” value in series [9] is 21% (15%). Besides, the IC50 in series [4] (setting [11]) was found to be 1750 nM; in series [4] (setting [12]), 536 nM; in series [4] (setting [13]) it was 725 nM; in series [4] (setting [14]), 624 nM; in [4] (setting [15]), 311 nM; in series [4] (24 h, read-out: Mean IC50 αSMA), 601 nM. Moreover, the “cell viability / cell death” value in series [4] is “some evidence of cell death”. Besides, the “inhibition of αSMA (FIG. 2)” value in series [4] was “inhibited αSMA, but at supra-therapeutic concentrations”.

The values above are taken from patent publication US20220117966A1, “METHOD OF TREATING FIBROSIS” (AstraZeneca AB, priority 2019, published 2022).
